Results taken from patent publication US20180251847A1, “METHOD OF PREDICTING THE TUMOR RESPONSE TO DNA METHYLATION INHIBITORS AND ALTERNATIVE THERAPEUTIC REGIMEN FOR OVERCOMING RESISTANCE” (PALACKY UNIVERSITY, OLOMOUC, priority 2014, published 2018).

How the values were obtained:
HCT116-RDAC xenografts = experiment: Anti-tumor activity in xenografted mouse model, HCT116-RDAC (clone R1.4); type: in vivo, SCID mice; conditions: HCT116-RDAC xenograft, DAC 2.5 mg/kg i.p., 10 doses, day 0-21
Excerpt: For in vivo validation of HCT116 resistance towards DAC and sensitivity of DAC resistant tumors to (+)-JQ1 treatment, we studied the anti-tumor activity of DAC and (+)-JQ1 in HCT116 parental versus a resistant cell clone R1.4 (HCT116_RDAC). Xenografts were established in 11-12 weeks-old female SCID mice, inoculated with 5×10^6 cells, s.c. on both sides of the chest. After 2 weeks, tumors were palpable (average tumor volume 20 mm^3) and mice were assigned into four groups (8 mice/group). Group I: vehicle control for DAC (10:90, DMSO: PBS) and Group II: DAC, 2.5 mg/kg by i.p. injection once a day for 14 days (5 days on, 2 days off), total 10 doses. […] Body weights of the animals were measured daily and tumor volume data were collected twice a week. […]
For determining the anti-tumor activity of the drugs, DAC and (+)-JQ1, tumor volume data for each group were transformed into relative tumor volumes followed by calculation of treatment to control ratio (T/C ratio) for each time point. […] Statistical significance of the data was determined by calculating bootstrap p-value, n=10000, one-sided test of H0: T/C ratio=1, H1: T/C ratio <1 (Jianrong Wu., Journal of Biopharmaceutical Statistics 2010; 20, 954-64). After day 21, statistical significance cannot be measured accurately due to decreased survival of animals in control group. […]

R1.2 (HCT116-RDAC) = experiment: MTT based cell survival assay, DAC resistant HCT116 clone R1.2; parameters: species or system human
Experimental: The DAC resistant HCT116 cell lines were developed using two methods.
The method is primarily based on reduction of yellow colored tetrazolium salt, 3-(4,5-dimethylthiazol-2-yl)-2,5-diphenyltetrazolium bromide (MTT) to insoluble purple colored formazan crystals by NAD(P)H-dependent oxidoreductase enzymes in mitochondria of the viable cell.
Cells in 80 μL of medium were plated in each of the experimental and the control wells, followed by addition of 20 μL medium with five-fold drug concentration to experimental wells. The wells with medium alone were included alongside as blank for absorbance readings. After 72 h of drug treatment, 10 μL MTT (Sigma-Aldrich) prepared in 1×PBS (5 mg/mL) was added to all wells including blank and control, and incubated until the purple formazan crystals were visible after which 100 μL of detergent (10% SDS, pH: 5.5) was added and the plates were incubated overnight to solubilize the formazan and the cellular material.
Cross resistance was determined as the fold increase, whereas, the sensitivity was determined as the fold decrease in the IC50 of the drugs for the resistant cell lines compared to their genetically identical drug sensitive counterpart.

`Nc1ncn([C@H]2C[C@H](O)[C@@H](CO)O2)c(=O)n1` [DAC, 2′-deoxy-5-azacytidine] was tested, and the “fold effect (anti-tumor activity, aAUC of T/C ratio)” value (HCT116-RDAC xenografts) was 1.3, the IC50 (R1.2 (HCT116-RDAC); Homo sapiens, HCT-116, 72 h, read-out: Mean IC50) was > 100 µM and the “fold change (resistance index)” value (R1.2 (HCT116-RDAC); IC50 R1.2 / IC50 HCT116) was “(>357) fold”.
